In brackets after ≈: the same amount, converted by molar mass. Where two headings read alike, the source gives them in different places.
How the values were obtained:
[1] = tested on: Mtb H37Rv; assay: Microplate Alamar Blue assay, MIC; assay type: cell-based, Mycobacterium tuberculosis; settings: Mycobacterium tuberculosis, H37RV
[2] = tested on: Mtb H37Ra; assay: Microdilution broth resazurin assay, MIC; assay type: cell-based, Mycobacterium tuberculosis
[3] = tested on: M. kansasii; assay: Microplate Alamar Blue assay, MIC; assay type: cell-based, Mycobacterium kansasii; settings: Mycobacterium kansasii; read-out: Antimycobacterial Activity MIC M. kans.
[4] = tested on: M. avium; assay: Microdilution broth resazurin assay, MIC; assay type: cell-based, Mycobacterium avium
[5] = tested on: M. smegmatis; assay: Microdilution broth resazurin assay, MIC; assay type: cell-based, Mycolicibacterium smegmatis
[6] = tested on: M. aurum; assay: Microdilution broth resazurin assay, MIC; assay type: cell-based, Mycolicibacterium aurum
[7] = Microplate Alamar Blue assay, read-out: Antimycobacterial Activity MIC Mtb H37Rv
[8] = Mycobacterium tuberculosis, H37RA; read-out: Antimycobacterial Activity MIC Mtb H37Ra
[9] = Mycobacterium avium, read-out: Antimycobacterial Activity MIC M. avium
[10] = Mycolicibacterium smegmatis, read-out: Antimycobacterial Activity MIC M. smeg.
[11] = Mycolicibacterium aurum, read-out: Antimycobacterial Activity MIC M. aurum
[12] = Mycobacterium tuberculosis, H37RA, read-out: Antimycobacterial Activity MIC Mtb H37Ra
[13] = Mycobacterium avium; read-out: Antimycobacterial Activity MIC M. avium
[14] = Table S5 matching pairs series A and B
[15] = Mycolicibacterium smegmatis; read-out: Antimycobacterial Activity MIC M. smeg.
[16] = Mycolicibacterium aurum; read-out: Antimycobacterial Activity MIC M. aurum
[17] = Mycobacterium tuberculosis, H37RA; internal quality controls (standards); read-out: MINIMUM INHIBITORY CONCENTRATION Mycobacterium tuberculosis H37Ra
[18] = Mycobacterium avium, DSM44156; internal quality controls (standards); read-out: MINIMUM INHIBITORY CONCENTRATION Mycobacterium avium DSM 44156
[19] = Mycolicibacterium smegmatis, DSM43465; internal quality controls (standards); read-out: MINIMUM INHIBITORY CONCENTRATION Mycolicibacterium smegmatis DSM 43465
[20] = Mycolicibacterium aurum, DSM43999; internal quality controls (standards); read-out: MINIMUM INHIBITORY CONCENTRATION Mycolicibacterium aurum DSM 43999

SMILES: Cc1nc2cc(Cl)ccc2c(=O)n1/N=C/c1cccc([N+](=O)[O-])c1 [Compound 27]
- MIC [1, 7]: > 50 µg/mL
- MIC [2, 8]: ≥ 62.5 µg/mL
- MIC [3]: > 50 µg/mL
- MIC [4, 9]: ≥ 62.5 µg/mL
- MIC [5, 10]: ≥ 62.5 µg/mL
- MIC [6, 11]: ≥ 62.5 µg/mL

SMILES: Cc1nc2cc(Cl)ccc2c(=O)n1/N=C/c1cccnc1 [Compound 30]
- MIC [1, 7]: > 25 µg/mL
- MIC [2, 8]: ≥ 31.2 µg/mL
- MIC [3]: > 25 µg/mL
- MIC [4, 9]: ≥ 31.2 µg/mL
- MIC [5, 10]: ≥ 31.2 µg/mL
- MIC [6, 11]: ≥ 31.2 µg/mL

SMILES: CC1Nc2ccccc2C(=O)N1Cc1ccc(Cl)c(Cl)c1 (centres unmarked) [Compound 11]
- MIC [1, 7]: > 100 µg/mL
- MIC ([1]; read-out: Antimycobacterial Activity MIC Mtb H37Rv, Table S5 matching pairs series A and B): > 100 µg/mL
- Antimycobacterial Activity MIC Mtb H37Ra [2]: ≥250 µg/mL
- MIC [2, 12]: ≥ 250 µg/mL
- MIC [3]: > 100 µg/mL
- MIC [4, 13]: ≥ 250 µg/mL
- Antimycobacterial Activity MIC M. avium [4, 14]: ≥ 250 µg/mL
- MIC [5, 15]: ≥ 250 µg/mL
- Antimycobacterial Activity MIC M. smeg. [5, 14]: ≥ 250 µg/mL
- MIC [6, 16]: ≥ 250 µg/mL
- Antimycobacterial Activity MIC M. aurum [6, 14]: ≥ 250 µg/mL

SMILES: CO[C@H]1/C=C/O[C@@]2(C)Oc3c(C)c(O)c4c(O)c(c(/C=N/N5CCN(C)CC5)c(O)c4c3C2=O)NC(=O)/C(C)=C\C=C\[C@H](C)[C@H](O)[C@@H](C)[C@@H](O)[C@@H](C)[C@H](OC(C)=O)[C@@H]1C [RIF, rifampicin]
- MIC [2, 17]: 0.00156 to 0.0031 µg/mL (≈ 0.0019 to 0.00377 µM)
- MIC [2, 8]: 0.00156 µg/mL (≈ 0.0019 µM)
- MIC [3]: 0.025 µg/mL (≈ 0.0304 µM)
- MIC [4, 18]: 0.0625 to 0.125 µg/mL (≈ 0.0759 to 0.152 µM)
- MIC [4, 13]: 0.125 µg/mL (≈ 0.152 µM)
- MIC [5, 19]: 12.5 to 25 µg/mL (≈ 15.2 to 30.4 µM)
- MIC [5, 15]: 12.5 µg/mL (≈ 15.2 µM)
- MIC [6, 20]: 0.39 to 0.78 µg/mL (≈ 0.474 to 0.948 µM)
- MIC [6, 16]: 0.39 µg/mL (≈ 0.474 µM)

SMILES: COc1cccc(/C=N/n2c(C)nc3cc(Cl)ccc3c2=O)c1 [Compound 39]
- MIC [1, 7]: > 50 µg/mL
- MIC [2, 8]: ≥ 62.5 µg/mL
- MIC [3]: > 50 µg/mL
- MIC [4, 9]: ≥ 62.5 µg/mL
- MIC [5, 10]: ≥ 62.5 µg/mL
- MIC [6, 11]: ≥ 62.5 µg/mL

SMILES: Cc1nc2cc(Cl)ccc2c(=O)n1/N=C/c1cccc(Cl)c1 [Compound 50]
- MIC [1, 7]: > 50 µg/mL
- MIC [2, 8]: ≥ 62.5 µg/mL
- MIC [3]: > 50 µg/mL
- MIC [4, 9]: ≥ 62.5 µg/mL
- MIC [5, 10]: ≥ 62.5 µg/mL
- MIC [6, 11]: ≥ 62.5 µg/mL

SMILES: Cc1nc2cc(Cl)ccc2c(=O)n1/N=C/c1cccc(O)c1 [Compound 36]
- MIC [1, 7]: > 100 µg/mL
- MIC [2, 8]: ≥ 62.5 µg/mL
- MIC [3]: > 100 µg/mL
- MIC [4, 9]: ≥ 62.5 µg/mL
- MIC [5, 10]: ≥ 62.5 µg/mL
- MIC [6, 11]: ≥ 62.5 µg/mL

SMILES: Cc1nc2cc(Cl)ccc2c(=O)n1/N=C/c1ccccc1Cl [Compound 49]
- MIC [1, 7]: > 25 µg/mL
- MIC [2, 8]: ≥ 31.2 µg/mL
- MIC [3]: > 25 µg/mL
- MIC [4, 9]: ≥ 31.2 µg/mL
- MIC [5, 10]: ≥ 31.2 µg/mL
- MIC [6, 11]: ≥ 31.2 µg/mL

SMILES: Cc1nc2cc(Cl)ccc2c(=O)n1/N=C/c1cccc(F)c1 [Compound 43]
- MIC [1, 7]: > 25 µg/mL
- MIC [2, 8]: ≥ 62.5 µg/mL
- MIC [3]: > 25 µg/mL
- MIC [4, 9]: ≥ 62.5 µg/mL
- MIC [5, 10]: ≥ 62.5 µg/mL
- MIC [6, 11]: ≥ 62.5 µg/mL

SMILES: COc1ccc(/C=N/n2c(C)nc3cc(Cl)ccc3c2=O)cc1 [Compound 40]
- MIC [1, 7]: > 50 µg/mL
- MIC [2, 8]: ≥ 15.6 µg/mL
- MIC [3]: > 50 µg/mL
- MIC [4, 9]: ≥ 15.6 µg/mL
- MIC [5, 10]: ≥ 15.6 µg/mL
- MIC [6, 11]: ≥ 15.6 µg/mL

SMILES: Cc1nc2cc(Cl)ccc2c(=O)n1/N=C/c1ccc(F)cc1 [Compound 44]
- MIC [1, 7]: > 25 µg/mL
- MIC [2, 8]: ≥ 31.2 µg/mL
- MIC [3]: > 25 µg/mL
- MIC [4, 9]: ≥ 31.2 µg/mL
- MIC [5, 10]: ≥ 31.2 µg/mL
- MIC [6, 11]: ≥ 31.2 µg/mL

SMILES: O=C(O)c1cn(C2CC2)c2cc(N3CCNCC3)c(F)cc2c1=O [CIP, ciprofloxacin, reference compound]
- MIC [2, 12]: 0.25 µg/mL (≈ 0.754 µM)
- MIC [2, 17]: 0.125 to 0.25 µg/mL (≈ 0.377 to 0.754 µM)
- MIC [3]: 0.25 µg/mL (≈ 0.754 µM)
- MIC [4, 18]: 0.5 µg/mL (≈ 1.51 µM)
- MIC [4, 13]: 1.56 µg/mL (≈ 4.71 µM)
- MIC [5, 19]: 0.0625 to 0.125 µg/mL (≈ 0.189 to 0.377 µM)
- MIC [5, 15]: 0.125 µg/mL (≈ 0.377 µM)
- MIC [6, 20]: 0.0078 to 0.0156 µg/mL (≈ 0.0235 to 0.0471 µM)
- MIC [6, 16]: 0.0156 µg/mL (≈ 0.0472 µM)

SMILES: Cc1nc2cc(Cl)ccc2c(=O)n1/N=C/c1ccc(O)cc1 [Compound 37]
- MIC [1, 7]: > 50 µg/mL
- MIC [2, 8]: ≥ 62.5 µg/mL
- MIC [3]: > 50 µg/mL
- MIC [4, 9]: ≥ 62.5 µg/mL
- MIC [5, 10]: ≥ 62.5 µg/mL
- MIC [6, 11]: ≥ 62.5 µg/mL

From publication PMC12221116, “Novel Quinazolinones Active against Multidrug‐Resistant Mycobacterium Tuberculosis: Synthesis, Antimicrobial Evaluation, and in Silico Exploration of Penicillin‐Binding Protein 1A as a Potential Target” (Chemmedchem, 2025)
